Experimental data taken from US20210308166A1, “ANTIOXIDANT COMPOSITION COMPRISING NOVEL GINSENOSIDE” (AMOREPACIFIC CORPORATION, priority 2018, published 2021).

Assays:
SH-SY5Y cells = experiment: Cytotoxicity / cell viability, CCK-8; assay type: cell-based; settings: SH-SY5Y cells, 0.1, 1, 5, 10, 20 and 50 μM, CCK-8 (FIG. 15)
Protocol: In order to exclude the possibility that the ginsenoside might affect antioxidant effect through cytotoxic activity, cell growth in the presence of the novel ginsenoside GS #10 according to an exemplary embodiment of the present disclosure was evaluated as follows using CCK (Cell Counting Kit)-8.
After adding 10 μL of CCK-8 reagent to SH-SY5Y cells (Dojindo, Md., USA) on a 96-well plate and maintaining at 37° C. for 2 hours, absorbance was measured at 450 nm. Cell viability was represented as the percentage (%) of the absolute optical density of each sample with respect to an untreated sample. The concentrations of the novel ginsenoside GS #10 according to an exemplary embodiment of the present disclosure in the medium for culturing the cells were 0.1, 1, 5, 10, 20 and 50 μM.

RAW 264.7 macrophages = experiment: Scavenging of LPS-induced reactive oxygen species, H2DCFDA fluorescence; assay type: cell-based
Protocol: RAW 264.7 macrophages purchased from ATCC were cultured in Dulbecco's modified Eagle's medium (Sigma) supplemented with 10% fetal bovine serum (FBS; HyClone) and 1% penicillin/streptomycin (Sigma) in a 5% CO2 incubator. After treating the RAW 264.7 cells with NAC (N-acetylcysteine; positive control group; Sigma) or each of the 7 ginsenosides extracted from the ginseng seed (GS #01 to GS #06 and GS #10; 10 μM each) for 1 hour, lipidpolysaccharides (LPS; inflammation/oxidative stress-induced group, Sigma) ware administered at a concentration of 10 ng/mL concentration for 30 minutes. Then, the cells were treated with 10 μM H2DCFDA (2′,7′-dichlorodihydrofluorescein diacetate; Invitrogen) for 30 minutes for measurement of reactive oxygen species. The amount of accumulated reactive oxygen species was measured using a TECAN multiplate reader (Tecan AG, excitation 485 nm, emission 530 nm).
The reactive oxygen species-scavenging ability of the novel ginsenoside GS #10 (isolated from the ginseng seed extract) according to an exemplary embodiment of the present disclosure was compared with that of three ginsenosides (Rg1, Rg3 and Rb1; Sigma), which are marker compounds of red ginseng as comparative examples of the present disclosure, in the same manner as in Test Example 2. The concentrations of the ginsenosides were 1 and 10 μM.

[1] = DPPH radical-scavenging (DPPH inhibition) assay; assay type: biochemical
Protocol: The DPPH (2,2-diphenyl-1-picrylhydrazyl) radical dissolved in an organic solvent has maximum absorbance at 515 nm. An antioxidant substance scavenges the DPPH radical, thereby turning the solution colorless and transparent. Accordingly, antioxidant effect can be compared by measuring the DPPH radical-scavenging activity of the ginsenosides through DPPH assay.
First, a DPPH solution was prepared by dissolving 4 mg of DPPH (Sigma) in 100 mL of ethanol (Sigma). Then, 10 μM of the novel ginsenoside GS #10 of an exemplary embodiment of the present disclosure or each of the ginsenosides GS #01 to GS #06 as comparative examples of the present disclosure, isolated from the ginseng seed extract, were dissolved in 200 μL of the DPPH solution. Trolox (Sigma; 10 μM) was used as a positive control group. After keeping the reaction solution at room temperature for 30 minutes, absorbance was measured at a wavelength of 515 nm.
DPPH-inhibiting effect was compared in the same manner as in Test Example 1. The novel ginsenoside GS #10 (isolated form the ginseng seed extract) according to an exemplary embodiment of the present disclosure was compared with three marker compounds of red ginseng (Rg1, Rg3 and Rb1; Sigma) as comparative examples of the present disclosure. The concentrations of the ginsenosides were 1 and 10 μM. […]

Compound: CC1(C)C(=O)CC[C@@]2(C)C1[C@@H](O[C@H]1OC(CO)[C@H](O)C(O)C1O[C@H]1OC(CO)[C@H](O)C(O)C1O)C[C@]1(C)C2C[C@@H](O)C2C([C@]3(C)CC[C@H](C(C)(C)O)O3)CC[C@]21C (stereo partly drawn) [Compound 10, (20S,24R)-6-O-β-D-glucopyranosyl(1->2)-β-D-glucopyranoside-dammar-3-one-20,24-epoxy-6a,12b,25-triol]
- cytotoxicity (cell viability, % of untreated sample) (SH-SY5Y cells): no cytotoxicity up to 50 μM
- removal of reactive oxygen species induced by LPS (RAW 264.7 macrophages; 10 μM for 1 hour, then LPS 10 ng/mL 30 minutes, compared to Compounds 1-6 at the same concentration (FIG. 12)): can effectively remove the reactive oxygen species induced by LPS
- production of reactive oxygen species (RAW 264.7 macrophages; 1 and 10 μM, LPS-treated RAW 264.7 cells (FIG. 14)): decreased as the concentration of the novel ginsenoside GS #10 according to the present disclosure was increased
- reactive oxygen species-scavenging ability (RAW 264.7 macrophages; 1 and 10 μM, compared to ginsenosides Rg1, Rg3 and Rb1 (FIG. 14)): remarkably superior
- DPPH (reactive oxygen species)-scavenging ability, i.e., DPPH-inhibiting ability ([1]; 10 μM, room temperature 30 minutes, absorbance 515 nm, compared to Compounds 1-6 at the same concentration (FIG. 11)): remarkably higher DPPH (reactive oxygen species)-scavenging ability
- DPPH-inhibiting effect ([1]; 1 and 10 μM, compared to ginsenosides Rg1, Rg3 and Rb1, marker compounds of red ginseng (FIG. 13)): remarkably excellent DPPH-inhibiting effect
